Experiments:
[1] = biological target: T1, fatty acid uptake complex in the DRM-PM consisting of CD36, FABPPM, caveolin1, and iPLA2ß (Homo sapiens, UniProt O60733); test: Disassembly of the fatty acid uptake complex in DRM-PM of HepG2 cells (immunoprecipitation, western blotting); assay type: cell-based
T1 construct: western blotting of DRM-PM isolated from these cells; endogenous in cells; host or cells: HepG2
T1 sequence (O60733 1-806): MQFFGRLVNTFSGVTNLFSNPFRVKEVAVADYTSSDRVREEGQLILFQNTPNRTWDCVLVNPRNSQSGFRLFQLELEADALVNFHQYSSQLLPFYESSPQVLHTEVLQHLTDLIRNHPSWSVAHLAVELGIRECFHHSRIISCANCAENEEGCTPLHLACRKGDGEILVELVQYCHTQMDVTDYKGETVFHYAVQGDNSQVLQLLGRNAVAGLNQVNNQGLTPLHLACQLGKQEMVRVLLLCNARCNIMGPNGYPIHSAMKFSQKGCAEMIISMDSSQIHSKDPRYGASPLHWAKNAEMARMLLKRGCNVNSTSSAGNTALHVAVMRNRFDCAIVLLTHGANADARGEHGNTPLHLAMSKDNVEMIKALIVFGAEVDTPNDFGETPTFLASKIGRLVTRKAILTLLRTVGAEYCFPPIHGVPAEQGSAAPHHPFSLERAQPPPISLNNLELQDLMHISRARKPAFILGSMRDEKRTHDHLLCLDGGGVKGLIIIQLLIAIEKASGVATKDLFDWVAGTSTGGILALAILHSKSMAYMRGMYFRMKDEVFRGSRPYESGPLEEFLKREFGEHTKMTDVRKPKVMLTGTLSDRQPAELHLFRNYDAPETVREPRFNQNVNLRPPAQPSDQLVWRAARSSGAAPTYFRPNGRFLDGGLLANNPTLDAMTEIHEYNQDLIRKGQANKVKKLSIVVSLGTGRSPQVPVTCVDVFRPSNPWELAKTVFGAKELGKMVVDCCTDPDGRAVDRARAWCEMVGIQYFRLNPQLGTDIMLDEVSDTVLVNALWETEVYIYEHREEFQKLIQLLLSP
Method: (§1) Detergent-resistant PM (DRM-PM) and non-DRM-PM fractions were isolated and characterized as previously described (Pohl J et al. Mol Biol Cell. 2005; 16: 24-31). Subcellular membrane fractions were prepared by centrifugation at 100,000 g for 1 h to obtain homogenate pellets. Nuclear extracts were obtained by centrifugation at 500 g for 5 min. Pellets were washed and resuspended in a buffer solution containing […] (pH 7.4), 100 mM NaCl, and 0.1 mM EDTA (Marzluff WF et al. Meth Cell Biol. 1987; 317-331)). The protein concentration was determined by the Bradford method (Bio- Rad, Munich, Germany).
Immunoblotting was performed according to a standard protocol as set out in Sun Q., et al. Biol Med (Maywood). 2012; 237: 178-185. […] To estimate the protein concentration a semi-quantitative densitometry was performed as described in Sun Q et al. (loc cit.). […]

[2] = tested on: cytosolic LPC; test: Cytosolic LPC concentration in HepG2 cells; assay type: cell-based, human
Method: LPC concentration in cytosolic supernatants was measured as previously described (Kishimoto T et al. Clin. Biochem. 2002; 35: 411-416).

[3] = tested on: p-JNK1; test: Cytosolic p-JNK1 levels in HepG2 cells (western blotting); assay type: cell-based, human
Method: Immunoblotting was performed according to a standard protocol as set out in Sun Q., et al. Biol Med (Maywood). 2012; 237: 178-185. The following primary antibodies to human proteins were used: mouse a-phosphorylated c-Jun N-terminal kinase 1 (p-JNK1) (88.20; Santa Cruz Biotechnology Inc., Heidelberg, Germany) at 1:500; mouse a-CD36 (1.BB.344; Santa Cruz Biotechnology Inc.) at 1:200; rabbit a-iPLA2ß (558-588; Abcam) at 1:500; mouse a-FABPPM (331-430; Abnova, Heidelberg, Germany) at 1:1,000; mouse a-FATP4 (1F4-1B10; Abnova) at 1:500; mouse a-caveolin-1 (C20B; Santa Cruz Biotechnology Inc.) at 1:500; mouse a-flotilin1 (F-3; Santa Cruz Biotechnology Inc.) at 1:500; and mouse a-ß-actin (AC-15; Sigma) at 1:100,000. Anti-mouse or -rabbit HRP (96910 and 107487, respectively; Dianova, Hamburg, Germany) were used at 1:10,000 dilution as secondary antibodies. To estimate the protein concentration a semi-quantitative densitometry was performed as described in Sun Q et al. (loc cit.).

[4] = tested on: HepG2 cells; test: Cellular steatohepatitis model in HepG2 cells; assay type: cell-based, human; details: UDCA-LPE 100 µM, 1 h, before or after 3 h 400 µM oleate:albumin (4:1)
Method: To induce steatosis, HepG2 cells were incubated with 400 µM oleate:albumin (4:1) for 3 h. The effect of UDCA-LPE (100 µM; 1 h) relative to PBS (control) was examined by pretreating cells before or after the 3- h fatty acid feeding period (with continuous fatty acid feeding thereafter). Fatty acid loading was examined by staining cells with Oil Red (Sigma) and by immunodetection of triglycerides (ab65336; Abcam, Cambridge, UK). In addition, the release of lactate dehydrogenase (LDH) (11644793001; Roche, Mannheim, Germany) was determined as a measure of apoptosis.

[5] = biological target: T2, iPLA2ß (Homo sapiens, UniProt O60733); test: PLA2 activity in DRM-PM fractions of HepG2 cells; assay type: biochemical; details: DRM-PM fractions after 1-h treatment; dose-dependent
T2 construct: PLA2 activity in DRM-PM fractions isolated from HepG2 cells; endogenous in cells; host or cells: HepG2 (DRM-PM fraction)
T2 sequence (O60733 1-806): T1 sequence (O60733 1-806)
Method: as §1
PLA2 activity (µmoles LPC/mg protein/h) was determined by incubating samples with arachidonoyl thio-PC (62240; Cayman, Tallin, Estonia) for 1 h at 25°C in a Ca2+ -free buffer (Bhat MK et al. Biochim Biophys Act. 1993; 1166: 244-250). The reaction was terminated by adding 5,5-dithio-bis-2-nitrobenzoic acid and the absorbance at 405 nm was measured.

incubation time at which the fatty acid uptake complex began to disassemble ([1]; 50 µM): ≥ 30 min
concentration at which the fatty acid uptake complex began to disassemble ([1]; 30 min of incubation): ≥ 50 µM
IC50 ([2]; 30 min treatment (Fig. 7), read-out: suppression of cytosolic LPC (IC50)): 47 µM
PLA2 activity [5]: suppression of PLA2 activity
Substance: ursodeoxycholatelysophosphatidylethanolamide [UDCA-LPE]
cytosolic LPC ([2]; UDCA-LPE 50 µM (Fig. 6), before treatment 8.0 ± 1.3): 3.5 ± 0.2 µmol/mg protein
pretreatment time achieving the threshold LPC concentration at which p-JNK1 began to decrease ([3]; > 50 µM UDCA-LPE): > 30 min
pretreatment concentration achieving the threshold LPC concentration at which p-JNK1 began to decrease ([3]; for > 30 min): > 50 µM
fatty acid-induced inflammation (LDH release) [4]: prevented or reversed
steatosis [4]: prevented or reversed
